Laboratory results: patent publication KR20120090118A, “자귀나무 추출물을 포함하는 항암 또는 항암 보조용 조성물” (학교법인 동의학원, priority 2010, dated 2012)

How the values were obtained:
[1] = system: human Jurkat T cells [Human Jurkat T세포]; experiment: Combination of Julibroside III and doxorubicin: cytotoxicity (MTT assay, 48 h) and FIC in Jurkat T cells; format: cell-based
[2] = system: mouse liver or kidney [마우스의 간이나 신장]; experiment: Safety in mice: histological signs of toxicity in liver or kidney (in vivo sarcoma experiment); conditions: up to 100mg/kg
[3] = doxorubicin and Julibroside III used in combination

Row | SMILES | IC50 [1, 3] [µg/mL] | IC50 ([1]; treated alone) [µg/mL] | histological signs of toxicity in liver or kidney [2]
1 | C=C[C@](C)(CC/C=C(\C)C(=O)O[C@H]1[C@H](O)[C@@H](O)[C@H](O[C@](C)(C=C)CC/C=C(\C)C(=O)O[C@H]2C[C@]3(C(=O)O[C@@H]4O[C@H](CO)[C@@H](O)[C@H](O)[C@H]4O[C@@H]4O[C@@H](C)[C@H](O[C@@H]5O[C@@H](CO)[C@H](O)[C@H]5O)[C@@H](O[C@@H]5O[C@H](CO)[C@@H](O)[C@H](O)[C@H]5O)[C@H]4O)[C@H](O)C[C@]4(C)C(=CC[C@@H]5[C@@]6(C)CC[C@H](O[C@@H]7O[C@H](CO[C@@H]8O[C@H](C)[C@H](O)[C@H](O)[C@H]8O[C@@H]8OC[C@@H](O)[C@H](O)[C@H]8O)[C@@H](O)[C@H](O)[C@H]7NC(C)=O)C(C)(C)[C@@H]6CC[C@]54C)[C@@H]3CC2(C)C)O[C@@H]1C)O[C@@H]1O[C@H](C)[C@@H](O)[C@H](O)[C@H]1O [Julibroside III] | 0.63 | 2.5 | 징후가 전혀 없음
2 | COc1cccc2c1C(=O)c1c(O)c3c(c(O)c1C2=O)C[C@@](O)(C(=O)CO)C[C@@H]3O[C@H]1C[C@H](N)[C@H](O)[C@H](C)O1 [독소루비신, reference compound] | 0.16 | 0.31 | 
